# Measured values reported in ChEMBL document CHEMBL3525920, “CYP4F enzymes are responsible for the elimination of fingolimod (FTY720), a novel treatment of relapsing multiple sclerosis” (Drug Metab Dispos, 2011).
# Key:
# Cytochrome P450 1B1 = Cytochrome P450 1B1 (Homo sapiens, UniProt Q16678); test: Activity at human recombinant CYP1B1 expressed in baculovirus-infected BTI-TN-5B1-4 insect cell microsomes assessed as metabolite formation at 5 to 100 uM after 30 mins by HPLC-RA analysis; type: ADME; details: bti-tn-5b1-4, 0.5 h
# [1] = Retention time of the compound by long gradient-based HPLC-RA analysis; type: physicochemical
# Liver microsome [2] = test: Drug metabolism in human liver microsomes assessed as metabolite formation at 50 uM treated 15 mins after antibody addition measured after 20 mins by HPLC-RA analysis in presence of CYP3A4-specific monoclonal antibody; type: ADME
# Cytochrome P450 2B6 = Cytochrome P450 2B6 (Homo sapiens, UniProt P20813); test: Activity at CYP2B6 in human liver microsomes isolated from donors assessed as metabolite formation after 24 mins by HPLC-RA analysis; type: ADME; details: 0.4 h
# Cytochrome P450 1A2 = Cytochrome P450 1A2 (Homo sapiens, UniProt P05177); test: Activity at human recombinant CYP1A2 expressed in baculovirus-infected BTI-TN-5B1-4 insect cell microsomes assessed as metabolite formation at 5 to 100 uM after 30 mins by HPLC-RA analysis; type: ADME; details: bti-tn-5b1-4, 0.5 h
# Liver microsome [3] = test: Drug metabolism in human liver microsomes assessed as total metabolite formation at 1 to 50 uM after 20 mins by HPLC-RA analysis in presence of CYP3A4 mechanism-based inhibitor TAO and NADPH; type: ADME
# Cytochrome P450 2C18 = Cytochrome P450 2C18 (Homo sapiens, UniProt P33260); test: Activity at human recombinant CYP2C18 expressed in baculovirus-infected BTI-TN-5B1-4 insect cell microsomes assessed as metabolite formation at 5 to 100 uM after 30 mins by HPLC-RA analysis; type: ADME; details: bti-tn-5b1-4, 0.5 h
# Aromatase = Aromatase (Homo sapiens, UniProt P11511); test: Activity at human recombinant CYP19 expressed in baculovirus-infected BTI-TN-5B1-4 insect cell microsomes assessed as metabolite formation at 5 to 100 uM after 30 mins by HPLC-RA analysis; type: ADME; details: bti-tn-5b1-4, 0.5 h
# Liver microsome [4] = test: Drug metabolism in human liver microsomes assessed as total metabolite formation at 1 to 50 uM after 20 mins by HPLC-RA analysis in presence of CYP2C8 inhibitor paclitaxel; type: ADME
# Cytochrome P450 2J2 = Cytochrome P450 2J2 (Homo sapiens, UniProt P51589); test: Activity at human recombinant CYP2J2 expressed in baculovirus-infected BTI-TN-5B1-4 insect cell microsomes assessed as metabolite formation at 5 to 100 uM after 30 mins by HPLC-RA analysis; type: ADME; details: bti-tn-5b1-4, 0.5 h
# Cytochrome P450 2C8 = Cytochrome P450 2C8 (Homo sapiens, UniProt P10632); test: Activity at CYP2C8 in human liver microsomes isolated from donors assessed as metabolite formation after 24 mins by HPLC-RA analysis; type: ADME; details: 0.4 h
# Cytochrome P450 4F3 = Cytochrome P450 4F3 (Homo sapiens, UniProt Q08477); test: Activity at human recombinant CYP4F3A expressed in baculovirus-infected BTI-TN-5B1-4 insect cell microsomes assessed as metabolite formation at 5 to 100 µM after 30 mins by HPLC-RA analysis; type: ADME; details: bti-tn-5b1-4, 0.5 h
# Liver microsome [5] = test: Drug metabolism in human liver microsomes assessed as metabolite formation at 50 uM treated 15 mins after antibody addition measured after 20 mins by HPLC-RA analysis in presence of CYP4F2-specific polyclonal antibody; type: ADME
# Liver microsome [6] = test: Drug metabolism in human liver microsomes assessed as total metabolite formation at 1 to 50 uM after 20 mins by HPLC-RA analysis in presence of CYP2D6 inhibitor quinidine; type: ADME
# Cytochrome P450 4F2 [7] = target: T1, Cytochrome P450 4F2 (Homo sapiens, UniProt P78329); test: Activity at human recombinant CYP4F2 expressed in baculovirus-infected BTI-TN-5B1-4 insect cell microsomes assessed as metabolite formation at 50 uM by HPLC-RA analysis in presence of anti-CYP4F2; type: ADME; details: bti-tn-5b1-4, 50 µM
# T1 sequence (P78329 whole entry): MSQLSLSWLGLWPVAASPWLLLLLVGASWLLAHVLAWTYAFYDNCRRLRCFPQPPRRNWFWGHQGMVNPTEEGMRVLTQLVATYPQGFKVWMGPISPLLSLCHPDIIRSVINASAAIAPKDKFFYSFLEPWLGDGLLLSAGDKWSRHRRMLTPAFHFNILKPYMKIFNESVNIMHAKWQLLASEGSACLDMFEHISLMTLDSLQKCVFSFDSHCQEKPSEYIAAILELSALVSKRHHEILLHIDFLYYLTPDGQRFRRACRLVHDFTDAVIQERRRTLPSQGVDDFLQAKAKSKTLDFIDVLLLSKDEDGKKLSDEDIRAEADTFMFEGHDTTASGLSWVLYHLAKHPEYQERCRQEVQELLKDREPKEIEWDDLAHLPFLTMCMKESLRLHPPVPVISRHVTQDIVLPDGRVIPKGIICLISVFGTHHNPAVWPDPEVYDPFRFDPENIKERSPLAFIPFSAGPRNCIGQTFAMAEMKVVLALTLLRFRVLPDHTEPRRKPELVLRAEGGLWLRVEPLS
# Cytochrome P450 2A6 [8] = target: T2, Cytochrome P450 2A6 (Homo sapiens, UniProt P11509); test: Activity at human recombinant CYP2A6 expressed in baculovirus-infected BTI-TN-5B1-4 insect cell microsomes assessed as metabolite formation at 5 to 100 uM after 30 mins by HPLC-RA analysis; type: ADME; details: bti-tn-5b1-4, 0.5 h
# Cytochrome P450 4F2 [9] = target: T1, Cytochrome P450 4F2; test: Activity at human recombinant CYP4F2 expressed in baculovirus-infected BTI-TN-5B1-4 insect cell microsomes assessed as intrinsic clearance for metabolite formation after 15 mins measured per nmol of P450 by Eadie-Hofstee plot analysis; type: ADME; details: bti-tn-5b1-4, 0.25 h
# Liver microsome [10] = test: Drug metabolism in human liver microsomes assessed as total metabolite formation at 1 to 50 uM after 20 mins by HPLC-RA analysis in presence of CYP2C19 inhibitor tranylcypromine; type: ADME
# Cytochrome P450 4F12 = Cytochrome P450 4F12 (Homo sapiens, UniProt Q9HCS2); test: Activity at human recombinant CYP4F12 expressed in baculovirus-infected BTI-TN-5B1-4 insect cell microsomes assessed as metabolite formation at 5 to 100 uM after 30 mins by HPLC-RA analysis; type: ADME; details: bti-tn-5b1-4, 0.5 h
# Cytochrome P450 4A11 = Cytochrome P450 4A11 (Homo sapiens, UniProt Q02928); test: Activity at human recombinant CYP4A11 expressed in baculovirus-infected BTI-TN-5B1-4 insect cell microsomes assessed as metabolite formation at 5 to 100 uM after 30 mins by HPLC-RA analysis; type: ADME; details: bti-tn-5b1-4, 0.5 h
# [11] = Activity at CYP4F in human liver microsomes assessed as metabolite formation after 15 mins by Eadie-Hofstee plot analysis; type: ADME; details: 0.25 h
# [12] = Activity at FMO in human liver microsomes isolated from donors assessed as metabolite formation after 24 mins by HPLC-RA analysis; type: ADME; details: 0.4 h
# Liver microsome [13] = test: Drug metabolism in human liver microsomes assessed as metabolite formation at 50 uM treated 15 mins after antibody addition measured after 20 mins by HPLC-RA analysis in presence of CYP2E1-specific monoclonal antibody; type: ADME
# Liver microsome [14] = test: Drug metabolism in human liver microsomes assessed as total metabolite formation at 1 to 50 uM after 20 mins by HPLC-RA analysis in presence of mechanism-based CYP1A2 inhibitor furafylline and NADPH; type: ADME
# Cytochrome P450 2A6 [15] = target: T2, Cytochrome P450 2A6; test: Activity at CYP2A6 in human liver microsomes isolated from donors assessed as metabolite formation after 24 mins by HPLC-RA analysis; type: ADME; details: 0.4 h
# T2 sequence (P11509 whole entry): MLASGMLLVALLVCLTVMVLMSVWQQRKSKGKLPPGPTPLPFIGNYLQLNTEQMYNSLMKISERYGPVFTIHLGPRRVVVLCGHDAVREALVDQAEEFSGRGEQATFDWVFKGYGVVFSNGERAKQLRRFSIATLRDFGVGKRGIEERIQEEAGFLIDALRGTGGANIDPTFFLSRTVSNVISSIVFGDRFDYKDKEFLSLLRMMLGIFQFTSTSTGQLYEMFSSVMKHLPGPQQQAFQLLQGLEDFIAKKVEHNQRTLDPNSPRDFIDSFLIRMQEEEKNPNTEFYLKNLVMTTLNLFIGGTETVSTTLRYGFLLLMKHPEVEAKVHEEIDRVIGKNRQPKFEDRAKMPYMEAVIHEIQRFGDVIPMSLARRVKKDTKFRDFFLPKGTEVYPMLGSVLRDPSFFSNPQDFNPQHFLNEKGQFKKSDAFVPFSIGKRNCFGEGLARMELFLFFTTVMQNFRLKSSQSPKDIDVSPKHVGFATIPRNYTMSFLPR
# Chain of Cytochrome P450 2B6 (P20813 whole entry): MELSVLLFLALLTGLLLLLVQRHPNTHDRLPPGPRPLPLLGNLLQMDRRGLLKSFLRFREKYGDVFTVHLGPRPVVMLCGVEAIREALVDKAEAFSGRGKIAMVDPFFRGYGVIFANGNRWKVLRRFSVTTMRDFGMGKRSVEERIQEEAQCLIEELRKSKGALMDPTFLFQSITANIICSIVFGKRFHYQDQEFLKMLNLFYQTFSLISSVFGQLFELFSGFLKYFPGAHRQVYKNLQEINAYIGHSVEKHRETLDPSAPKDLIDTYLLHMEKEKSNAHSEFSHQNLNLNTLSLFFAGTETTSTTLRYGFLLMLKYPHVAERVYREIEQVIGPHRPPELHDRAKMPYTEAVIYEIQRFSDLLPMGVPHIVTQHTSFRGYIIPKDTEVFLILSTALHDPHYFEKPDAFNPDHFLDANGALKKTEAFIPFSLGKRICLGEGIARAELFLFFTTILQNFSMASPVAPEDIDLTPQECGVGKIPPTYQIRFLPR
# Chain of Cytochrome P450 2C18 (P33260 whole entry): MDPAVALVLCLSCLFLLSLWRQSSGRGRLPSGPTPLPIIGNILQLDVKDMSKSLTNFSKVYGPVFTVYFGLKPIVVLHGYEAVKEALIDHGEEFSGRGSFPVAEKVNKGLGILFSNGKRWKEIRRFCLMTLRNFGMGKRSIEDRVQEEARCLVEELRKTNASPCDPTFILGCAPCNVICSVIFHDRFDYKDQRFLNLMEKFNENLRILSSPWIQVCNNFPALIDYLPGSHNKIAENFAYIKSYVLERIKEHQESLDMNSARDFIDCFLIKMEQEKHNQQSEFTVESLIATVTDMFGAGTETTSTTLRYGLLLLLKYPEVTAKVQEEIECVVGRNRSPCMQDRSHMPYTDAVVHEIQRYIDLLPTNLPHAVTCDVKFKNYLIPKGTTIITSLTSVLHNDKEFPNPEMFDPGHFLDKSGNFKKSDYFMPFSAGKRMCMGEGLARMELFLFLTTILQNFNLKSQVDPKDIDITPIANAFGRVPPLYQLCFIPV
# Chain of Cytochrome P450 2J2 (P51589 whole entry): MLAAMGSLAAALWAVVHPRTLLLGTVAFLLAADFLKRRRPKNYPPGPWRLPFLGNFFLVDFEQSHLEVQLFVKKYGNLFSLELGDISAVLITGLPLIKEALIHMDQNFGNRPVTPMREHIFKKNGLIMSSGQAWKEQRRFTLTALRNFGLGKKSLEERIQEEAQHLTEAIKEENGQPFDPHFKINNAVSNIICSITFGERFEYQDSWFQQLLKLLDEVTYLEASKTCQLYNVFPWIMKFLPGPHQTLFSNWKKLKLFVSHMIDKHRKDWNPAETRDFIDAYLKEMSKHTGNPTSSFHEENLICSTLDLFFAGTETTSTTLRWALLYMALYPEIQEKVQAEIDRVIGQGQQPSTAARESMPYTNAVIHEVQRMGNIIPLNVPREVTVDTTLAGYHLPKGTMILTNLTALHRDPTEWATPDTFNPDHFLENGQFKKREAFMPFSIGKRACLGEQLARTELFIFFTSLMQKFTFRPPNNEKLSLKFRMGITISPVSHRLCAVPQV
# Chain of Cytochrome P450 1B1 (Q16678 whole entry): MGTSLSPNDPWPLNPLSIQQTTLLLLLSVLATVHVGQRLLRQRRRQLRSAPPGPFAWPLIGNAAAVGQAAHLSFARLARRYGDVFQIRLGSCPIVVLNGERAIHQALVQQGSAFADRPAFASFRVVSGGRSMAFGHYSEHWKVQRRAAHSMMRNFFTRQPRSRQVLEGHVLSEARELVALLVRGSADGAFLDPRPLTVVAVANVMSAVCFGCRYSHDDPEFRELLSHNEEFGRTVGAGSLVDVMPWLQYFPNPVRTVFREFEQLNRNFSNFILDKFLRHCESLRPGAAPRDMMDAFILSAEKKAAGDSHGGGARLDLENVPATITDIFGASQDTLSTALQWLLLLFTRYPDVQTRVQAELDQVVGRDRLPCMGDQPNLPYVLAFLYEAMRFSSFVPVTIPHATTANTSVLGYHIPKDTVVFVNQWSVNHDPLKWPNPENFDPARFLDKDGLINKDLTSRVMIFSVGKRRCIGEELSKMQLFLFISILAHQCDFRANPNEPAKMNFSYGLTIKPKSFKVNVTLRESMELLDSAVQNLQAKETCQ
# Chain of Cytochrome P450 1A2 (P05177 whole entry): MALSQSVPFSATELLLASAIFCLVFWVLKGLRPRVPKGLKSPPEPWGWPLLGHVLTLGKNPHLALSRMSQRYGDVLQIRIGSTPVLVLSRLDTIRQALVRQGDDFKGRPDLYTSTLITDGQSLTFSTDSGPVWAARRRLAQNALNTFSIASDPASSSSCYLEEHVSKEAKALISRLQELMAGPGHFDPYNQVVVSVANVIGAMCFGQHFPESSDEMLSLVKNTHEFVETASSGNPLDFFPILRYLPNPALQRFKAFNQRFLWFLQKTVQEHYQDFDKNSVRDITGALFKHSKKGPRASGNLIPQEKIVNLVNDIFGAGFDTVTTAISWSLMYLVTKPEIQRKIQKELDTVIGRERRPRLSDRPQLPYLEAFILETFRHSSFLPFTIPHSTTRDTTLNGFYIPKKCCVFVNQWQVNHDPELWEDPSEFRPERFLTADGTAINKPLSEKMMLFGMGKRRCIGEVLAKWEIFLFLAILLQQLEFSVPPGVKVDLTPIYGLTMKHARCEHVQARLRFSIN
# Chain of Cytochrome P450 4F12 (Q9HCS2 whole entry): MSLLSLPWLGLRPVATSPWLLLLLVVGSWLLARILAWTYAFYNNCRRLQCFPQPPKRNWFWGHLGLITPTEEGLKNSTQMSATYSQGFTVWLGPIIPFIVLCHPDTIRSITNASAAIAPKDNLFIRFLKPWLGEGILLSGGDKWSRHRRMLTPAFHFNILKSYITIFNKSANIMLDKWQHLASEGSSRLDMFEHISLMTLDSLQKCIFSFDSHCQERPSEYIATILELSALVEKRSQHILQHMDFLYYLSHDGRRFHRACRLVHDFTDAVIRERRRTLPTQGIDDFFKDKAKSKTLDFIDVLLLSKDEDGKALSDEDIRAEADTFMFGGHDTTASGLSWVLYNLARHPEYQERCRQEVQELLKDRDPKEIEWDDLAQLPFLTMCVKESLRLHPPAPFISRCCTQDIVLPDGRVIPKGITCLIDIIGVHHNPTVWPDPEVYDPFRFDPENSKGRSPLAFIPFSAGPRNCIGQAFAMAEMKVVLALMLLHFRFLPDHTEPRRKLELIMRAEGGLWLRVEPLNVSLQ
# Chain of Cytochrome P450 4A11 (Q02928 whole entry): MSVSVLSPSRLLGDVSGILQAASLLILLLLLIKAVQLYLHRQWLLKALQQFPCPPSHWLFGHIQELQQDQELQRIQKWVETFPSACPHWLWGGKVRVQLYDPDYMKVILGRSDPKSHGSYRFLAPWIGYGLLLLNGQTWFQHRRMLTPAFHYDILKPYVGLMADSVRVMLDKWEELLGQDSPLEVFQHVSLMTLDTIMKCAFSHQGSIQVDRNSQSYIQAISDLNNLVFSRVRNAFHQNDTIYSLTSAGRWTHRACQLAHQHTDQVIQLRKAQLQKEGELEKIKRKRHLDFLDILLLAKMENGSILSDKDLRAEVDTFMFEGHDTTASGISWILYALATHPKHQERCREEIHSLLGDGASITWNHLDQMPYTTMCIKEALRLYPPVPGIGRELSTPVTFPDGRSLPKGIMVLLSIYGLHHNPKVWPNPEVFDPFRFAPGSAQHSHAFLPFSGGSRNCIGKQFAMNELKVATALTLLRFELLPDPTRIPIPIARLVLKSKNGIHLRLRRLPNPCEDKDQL
# Chain of Cytochrome P450 2C8 (P10632 whole entry): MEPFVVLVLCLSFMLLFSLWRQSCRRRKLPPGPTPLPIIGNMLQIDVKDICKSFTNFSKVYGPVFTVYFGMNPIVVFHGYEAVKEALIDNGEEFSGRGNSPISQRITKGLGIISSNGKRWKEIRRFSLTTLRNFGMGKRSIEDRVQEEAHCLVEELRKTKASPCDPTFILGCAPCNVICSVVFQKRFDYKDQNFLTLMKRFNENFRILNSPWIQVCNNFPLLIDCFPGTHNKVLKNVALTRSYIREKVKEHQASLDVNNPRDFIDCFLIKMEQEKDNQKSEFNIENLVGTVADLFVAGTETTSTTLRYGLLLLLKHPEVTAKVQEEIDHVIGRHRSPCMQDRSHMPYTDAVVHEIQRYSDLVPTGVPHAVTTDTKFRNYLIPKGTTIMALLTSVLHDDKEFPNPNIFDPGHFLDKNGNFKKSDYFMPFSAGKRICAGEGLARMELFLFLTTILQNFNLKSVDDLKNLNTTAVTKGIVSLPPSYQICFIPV
compound,measurement,setting,value
CCCCCCCCc1ccc(CC[14C](N)(CO)CO)cc1.Cl,Drug metabolism,Cytochrome P450 1B1,metabolite_not_detected
same,Retention_time,[1],41.9 min
same,Drug metabolism,Liver microsome [2],metabolite_detected
same,Drug metabolism,Cytochrome P450 2B6,metabolite_not_detected
same,Drug metabolism,Cytochrome P450 1A2,metabolite_not_detected
same,Drug metabolism,Liver microsome [3],metabolite_detected
same,Drug metabolism,Cytochrome P450 2C18,metabolite_not_detected
same,Drug metabolism,Aromatase,metabolite_not_detected
same,Drug metabolism,Liver microsome [4],metabolite_detected
same,Drug metabolism,Cytochrome P450 2J2,metabolite_not_detected
same,Drug metabolism,Cytochrome P450 2C8,metabolite_not_detected
same,Drug metabolism,Cytochrome P450 4F3,metabolite_not_detected
same,Drug metabolism,Liver microsome [5],metabolite_not_detected
same,Drug metabolism,Liver microsome [6],metabolite_detected
same,Drug metabolism,Cytochrome P450 4F2 [7],metabolite_not_detected
same,Drug metabolism,Cytochrome P450 2A6 [8],metabolite_not_detected
same,CL,Cytochrome P450 4F2 [9],23 µL/min
same,Drug metabolism,Liver microsome [10],metabolite_detected
same,Drug metabolism,Cytochrome P450 4F12,metabolite_detected
same,Drug metabolism,Cytochrome P450 4A11,metabolite_not_detected
same,Km,[11],183 µM
same,Drug metabolism,[12],metabolite_not_detected
same,Drug metabolism,Liver microsome [13],metabolite_detected
same,Drug metabolism,Liver microsome [14],metabolite_detected
same,Drug metabolism,Cytochrome P450 2A6 [15],metabolite_not_detected
